From publication doi:10.1101/2021.10.07.463234v2 (biorxiv, 2021)
Structures can show the parent of a compound that is named as a salt. Numbered stars: 1 amine (or outer) side, 2 acyl side, 3 side chain; on linkers, the order of the positions; unused ones are H or OH. Bridge positions count the residues as written; N and C are the ends. Square brackets hold non-standard residues; d marks the D form. Peptide text beside a SMILES is read from it. * marks the point of attachment. hTyr(3S-OH,4S-OH,3'-OSO3H) = N[C@H](C(=O)O)[C@H](O)[C@@H](O)c1ccc(O)c(OS(=O)(=O)O)c1; Orn(4R-OH,5R-OH) = O=C([C@H](C[C@@H](O)[C@@H](O)N[*:3])N[*:1])[*:2]; Pro(3S-OH,4S-Me) = C[C@H]1CN[C@H](C(=O)O)[C@H]1O; X1 = CCCCCOc1ccc(-c2cc(-c3ccc(C(=O)*)cc3)no2)cc1; Gln(3R-OH) = NC(=O)C[C@@H](O)[C@H](N)C(=O)O; Hyp = O=C(O)[C@@H]1C[C@@H](O)CN1

biological target: SARS-CoV-2 Mac1 (Severe acute respiratory syndrome coronavirus 2, UniProt P0DTD1); experiment: biochemical; conditions: 100 µM; inhibitor

Structure (SMILES) | %inhibition [%]
O=C1O[C@H]([C@@H](O)CO)C(O)=C1O [Vitamin C] | 15.62
CN1CCN(c2ccc3nc(-c4c(N)c5c(F)cccc5[nH]c4=O)[nH]c3c2)CC1 [Dovitinib (TKI-258, CHIR-258)] | 50.41
CC(C(=O)O)c1cccc(Oc2ccccc2)c1 (stereo not drawn) [Fenoprofen Calcium] | 9.442
CCN(C)C(=O)Oc1cccc([C@H](C)N(C)C)c1 [Rivastigmine] | 0
CN(C/C=C/C#CC(C)(C)C)Cc1cccc2ccccc12 [Terbinafine] | 49.96
C[C@H]1C[C@H]2[C@@H]3CCC4=CC(=O)C=C[C@]4(C)[C@@]3(F)[C@@H](O)C[C@]2(C)[C@@]1(O)C(=O)CO [Betamethasone] | 1.437
COc1ccc2[nH]c([S@@+]([O-])Cc3ncc(C)c(OC)c3C)nc2c1 [NEXIUM (esomeprazole magnesium)] | 21.09

same assay, conditions: read-out: %inhibition

Structure (SMILES) | inhibition at 100 µM [%]
CS(=O)(=O)n1cc2c(n1)CN([C@H]1CO[C@H](c3cc(F)ccc3F)[C@@H](N)C1)C2 [Omarigliptin (MK-3102)] | 0
CCOC(=O)C1=C(C)NC(C)=C(C(=O)OC)C1c1cccc([N+](=O)[O-])c1 (stereo not drawn) [Nitrendipine] | 4.31
CNCC(=O)c1ccc(O)c(O)c1 [Adrenalone HCl] | 6.88
Nc1nc(/C(=C/CC(=O)O)C(=O)N[C@@H]2C(=O)N3C(C(=O)O)=CCS[C@H]23)cs1 [Ceftibuten dihydrate] | 10.7
O=[N+]([O-])C(Br)(CO)CO [Bronopol] | 0
CC(C(=O)O)c1ccc2c(c1)CC(=O)c1ccccc1S2 (stereo not drawn) [Zaltoprofen] | 16.4
Nc1ccn([C@@H]2O[C@H](CO)[C@@H](O)[C@@H]2O)c(=O)n1 [Cytarabine] | 0
COc1ccccc1Oc1c(NS(=O)(=O)c2ccc(C(C)(C)C)cc2)nc(-c2ncccn2)nc1OCCO [Bosentan Hydrate] | 0.962
CNS(=O)(=O)C[C@H]1CC[C@H](N(C)c2[nH]cnc3nccc2-3)CC1 [Oclacitinib?maleate] | 0
CC1(C)OC[C@@H](COC(=O)CCc2ccc(OC[C@@H](O)CNCCNC(=O)N3CCOCC3)cc2)O1 [Landiolol hydrochloride] | 18
COc1ccc(C(=O)c2ccccc2)c(O)c1 [Oxybenzone] | 0.0343
CN(C)CC(c1ccc(O)cc1)C1(O)CCCCC1 (stereo not drawn) [Desvenlafaxine Succinate] | 7.7
CCCCN(CCCC)CC(O)c1cc(Cl)cc2c1-c1ccc(Cl)cc1/C2=C/c1ccc(Cl)cc1 (stereo not drawn) [Lumefantrine] | 0
N#Cc1cc(-c2n[nH]c(-c3ccncc3)n2)ccn1 [Topiroxostat] | 0
CCS(=O)(=O)N1CCN(c2ccc(Nc3ncc(C(N)=O)c(NC4CC4)n3)cc2)CC1 [Cerdulatinib (PRT062070, PRT2070)] | 15.9
FC(F)(F)c1ccc(/C=C/c2nc(COc3ccc(CCCCn4ccnn4)cc3)co2)cc1 [Mubritinib (TAK 165)] | 0
CC(C)N1CCN(c2ccc(OC[C@H]3CO[C@](Cn4cncn4)(c4ccc(Cl)cc4Cl)O3)cc2)CC1 (racemic) [Terconazole] | 4.88
c1cnc2cc3c(cc2n1)[C@@H]1CNC[C@H]3C1 [Varenicline Tartrate] | 0
OC[C@@H](O)[C@@H](O)[C@H](O)[C@@H](O)CO [Sorbitol] | 0
C[C@@](Cc1ccc(O)c(O)c1)(NN)C(=O)O [Carbidopa] | 24.2
Cc1[nH]c(=O)c(C#N)cc1-c1ccncc1 [Milrinone] | 0
CN(C)CCN1C(=O)c2cccc3cc(N)cc(c23)C1=O [Amonafide] | 16.3
CC(O)c1ccc(S(=O)(=O)NC(=O)NC2CCCCC2)cc1 (stereo not drawn) [Hydroxyhexamide] | 28

Structure (SMILES) | inhibition at 100 µM [%]
CCNC1(c2cccs2)CCCCC1=O (stereo not drawn) [Tiletamine Hydrochloride] | 0
O=S(=O)(O)Oc1ccc(C(c2ccc(OS(=O)(=O)O)cc2)c2ccccn2)cc1 [Sodium Picosulfate] | 1.51
C[C@@H](O)[C@H]1C(=O)N2C(C(=O)O)=C(SCCNC=N)C[C@H]12 [Imipenem] | 9.79
Cn1cc(CNCC2CCN(c3ncc(C(=O)NO)cn3)CC2)c2ccccc21 [Quisinostat (JNJ-26481585) 2HCl] | 0
CCC(C)(Oc1ccc(C2(c3ccc(OC(C)(CC)C(=O)O)cc3)CCCCC2)cc1)C(=O)O (stereo not drawn) [Clinofibrate] | 0
COc1ccccc1N1CCN(CCCNc2cc(=O)n(C)c(=O)n2C)CC1 [Urapidil HCl] | 2.64
COc1cc2nc(N3CCN(C(=O)C4COc5ccccc5O4)CC3)nc(N)c2cc1OC (stereo not drawn) [Doxazosin Mesylate] | 14.6
O=C(O)CCCCCCCC(=O)O [Azelaic acid] | 0
CN1C[C@@H]2c3ccccc3Oc3ccc(Cl)cc3[C@H]2C1 (racemic) [Asenapine maleate] | 0
CC(CN(C)C)CN1c2ccccc2CCc2ccccc21 (stereo not drawn) [Trimipramine Maleate] | 0
C[C@@H](Oc1cc(-c2cnn(C3CCNCC3)c2)cnc1N)c1c(Cl)ccc(F)c1Cl [Crizotinib (PF-02341066)] | 6.7
CCCCC(O)c1ccccc1 (stereo not drawn) [Fenipentol] | 4.29
CCOC(=O)CCC(=O)O[C@H]1[C@H](O[C@@H]2[C@@H](C)[C@H](O[C@H]3C[C@@](C)(OC)[C@@H](O)[C@H](C)O3)[C@@H](C)C(=O)O[C@H](CC)[C@@](C)(O)[C@H](O)[C@@H](C)C(=O)[C@H](C)C[C@@]2(C)O)O[C@H](C)C[C@@H]1N(C)C [Erythromycin Ethylsuccinate] | 0
CC(O)Cn1cnc2c1c(=O)n(C)c(=O)n2C (stereo not drawn) [Proxyphylline] | 1.62
CC(C)NCC(O)c1ccccc1Cl (stereo not drawn) [Clorprenaline HCl] | 7.59
Cc1cccc(C)c1NC(=O)CN1CCCC1=O [Nefiracetam] | 8.32
CCCCCOc1ccc(-c2cc(-c3ccc(C(=O)N[C@H]4C[C@@H](O)[C@@H](O)NC(=O)[C@@H]5[C@@H](O)[C@@H](C)CN5C(=O)[C@H]([C@H](O)CC(N)=O)NC(=O)[C@H]([C@H](O)[C@@H](O)c5ccc(O)c(OS(=O)(=O)O)c5)NC(=O)[C@@H]5C[C@@H](O)CN5C(=O)[C@H]([C@@H](C)O)NC4=O)cc3)no2)cc1 [Micafungin Sodium] (X1-[Orn(4R-OH,5R-OH)]T[Hyp][hTyr(3S-OH,4S-OH,3'-OSO3H)][Gln(3R-OH)][Pro(3S-OH,4S-Me)]; lactam 1-C) | 0
CN(C)C(=O)COC(=O)Cc1ccc(OC(=O)c2ccc(NC(=N)N)cc2)cc1 [Camostat Mesilate] | 42.9
CCCCCCCCCCCCCCCC[N+](C)(C)C [Cetrimonium Bromide (CTAB)] | 25.1
NS(=O)(=O)NCCNc1nonc1/C(=N/O)Nc1ccc(F)c(Br)c1 [Epacadostat (INCB024360)] | 14.8
CCOC(=O)n1ccn(C)c1=S [Carbimazole] | 0
C[N+](C)(C)CCOC(=O)CCC(=O)OCC[N+](C)(C)C [Succinylcholine Chloride Dihydrate] | 0
CC(C)[C@@H]1CC[C@@H](C)C[C@H]1O [(-)-Menthol] | 0

Structure (SMILES) | inhibition at 100 µM [%]
CCn1cc(C(=O)O)c(=O)c2cc(F)c(N3CCNCC3)cc21 [Norfloxacin] | 24.7
CC(C)(C)CC(C)(C)c1ccc(O)c(Cc2ccc(Cl)cc2Cl)c1 [Clofoctol] | 0
NC(=O)CCC(N)C(=O)O (racemic) [DL-Glutamine] | 0
Cn1c(=O)c2c(ncn2CC(O)CO)n(C)c1=O (stereo not drawn) [Dyphylline] | 0.0817
Cc1ccc(NC(=O)c2ccc(CN3CCN(C)CC3)cc2)cc1Nc1nc(-c2cccnc2)cs1 [Masitinib (AB1010)] | 7.66
Nc1nc(CC(=O)Nc2ccc(CCNC[C@H](O)c3ccccc3)cc2)cs1 [Mirabegron] | 0
Cc1cnc(C(=O)NCCc2ccc(S(=O)(=O)NC(=O)NC3CCCCC3)cc2)cn1 [Glipizide] | 19.9
O=C(NS(=O)(=O)c1ccc(Br)s1)c1ccc(Cl)cc1Cl [Tasisulam] | 0
CC(C)OC(=O)[C@H](C)N[P@](=O)(CO[C@H](C)Cn1cnc2c(N)ncnc21)Oc1ccccc1 [Tenofovir Alafenamide (GS-7340)] | 10.7
O=C1CN2Cc3c(ccc(Cl)c3Cl)N=C2N1 [Anagrelide HCl] | 0
CC[C@H]1[C@@H](O)[C@@H]2[C@H](CC[C@]3(C)[C@@H]([C@H](C)CCC(=O)O)CC[C@@H]23)[C@@]2(C)CC[C@@H](O)C[C@@H]12 [Obeticholic Acid] | 37.3
N[C@H]1C[C@@H]1c1ccccc1 [Tranylcypromine (2-PCPA) HCl] | 0
Cn1c(=O)c2c(ncn2CC2OCCO2)n(C)c1=O [Doxofylline] | 1.49
C[C@H]1CN(C[C@H](Cc2ccccc2)C(=O)NCC(=O)O)CC[C@@]1(C)c1cccc(O)c1 [Alvimopan dihydrate] | 12.8
Cc1ccccc1N1C(=O)c2cc(S(N)(=O)=O)c(Cl)cc2NC1C (stereo not drawn) [Metolazone] | 0
CS(=O)(=O)OCCCCOS(C)(=O)=O [Busulfan] | 0
O=C(CCCN1CCN(c2ccccn2)CC1)c1ccc(F)cc1 [Azaperone] | 22.5
O=C(O)c1cc(O)c(O)c(O)c1 [Gallic acid] | 0
CC(C)(C)C#Cc1cc(N(C(=O)[C@H]2CC[C@H](C)CC2)[C@H]2CC[C@H](O)CC2)c(C(=O)O)s1 [Lomibuvir (VX-222, VCH-222)] | 2.87
Cc1cnc(C(=O)N[C@H]2CCCCC/C=C\[C@@H]3C[C@@]3(C(=O)NS(=O)(=O)C3CC3)NC(=O)[C@@H]3C[C@@H](Oc4nc5ccccc5c5ccccc45)CN3C2=O)cn1 [Paritaprevir (ABT-450)] | 0
COC(=O)C1=C(C)NC(C)=C(C(=O)OCC(C)C)C1c1ccccc1[N+](=O)[O-] (stereo not drawn) [Nisoldipine] | 16.9
O=C1/C(=C2\Nc3ccc(S(=O)(=O)O)cc3C2=O)Nc2ccc(S(=O)(=O)O)cc21 [Indigo carmine] | 39.3
